The source of these data is patent publication US20210198277A1, “AMINE-SUBSTITUTED ARYL OR HETEROARYL COMPOUNDS” (Epizyme, Inc., priority 2016, published 2021).

The target in the experiment is T1, EHMT2 (Homo sapiens, UniProt Q96KQ7).
T1 construct: host or cells: MDA-MB-231
T1 sequence (Q96KQ7 1-1210): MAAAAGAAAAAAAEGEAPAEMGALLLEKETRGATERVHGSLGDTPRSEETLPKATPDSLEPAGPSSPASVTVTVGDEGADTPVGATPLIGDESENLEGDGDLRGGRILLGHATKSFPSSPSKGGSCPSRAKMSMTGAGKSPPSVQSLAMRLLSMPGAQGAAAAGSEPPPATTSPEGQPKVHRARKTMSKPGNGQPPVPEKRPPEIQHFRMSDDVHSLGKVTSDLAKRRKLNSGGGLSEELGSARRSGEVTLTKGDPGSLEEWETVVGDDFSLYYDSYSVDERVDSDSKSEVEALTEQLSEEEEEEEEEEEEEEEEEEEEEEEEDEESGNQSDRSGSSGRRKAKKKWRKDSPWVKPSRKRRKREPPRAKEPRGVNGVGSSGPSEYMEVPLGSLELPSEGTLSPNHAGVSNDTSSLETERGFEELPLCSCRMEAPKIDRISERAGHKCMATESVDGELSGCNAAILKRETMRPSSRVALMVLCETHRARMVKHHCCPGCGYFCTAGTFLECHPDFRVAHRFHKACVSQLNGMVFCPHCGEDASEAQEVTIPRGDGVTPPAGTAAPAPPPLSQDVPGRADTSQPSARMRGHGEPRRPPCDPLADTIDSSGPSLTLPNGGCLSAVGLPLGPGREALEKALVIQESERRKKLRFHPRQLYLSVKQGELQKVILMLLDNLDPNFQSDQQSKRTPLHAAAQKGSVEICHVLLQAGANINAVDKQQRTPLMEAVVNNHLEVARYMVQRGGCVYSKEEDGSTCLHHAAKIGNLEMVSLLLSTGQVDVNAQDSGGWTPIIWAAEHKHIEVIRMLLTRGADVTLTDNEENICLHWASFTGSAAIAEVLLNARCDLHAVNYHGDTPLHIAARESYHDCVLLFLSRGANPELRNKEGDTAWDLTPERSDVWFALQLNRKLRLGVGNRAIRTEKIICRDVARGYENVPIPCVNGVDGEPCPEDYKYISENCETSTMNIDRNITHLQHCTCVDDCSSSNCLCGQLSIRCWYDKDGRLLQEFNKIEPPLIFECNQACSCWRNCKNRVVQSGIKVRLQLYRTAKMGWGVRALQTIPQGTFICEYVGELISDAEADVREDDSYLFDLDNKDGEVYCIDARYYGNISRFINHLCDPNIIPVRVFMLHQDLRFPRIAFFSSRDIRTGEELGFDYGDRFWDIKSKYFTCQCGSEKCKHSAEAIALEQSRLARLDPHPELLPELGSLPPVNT
The experiment can be described thus: MDA-MB-231 H3K9me2 in-cell Western assay (EHMT2 ICW). Type of experiment: cell-based. Particulars: Table III; MDA-MB-231 H3K9me2 in-cell Western; read-out: EHMT2 ICW (IC50 μM). The method in brief:
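Cellular dimethyl-H3K9 is quantified by in-cell Western in MDA-MB-231 cells treated with compound for 48 h. The H3K9me2 signal at 800 nm is normalised to DRAQ5 nuclear stain at 700 nm. IC50 is calculated from triplicate concentration points by nonlinear regression.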

Bounds are passed on as bounds.

Broadly, the IC50 is the concentration that inhibits the measured activity by half. Regarding `CNc1ccnc(Nc2ccc3cnn(CCN(C)C)c3c2)n1` [Compound 386], the half-maximal inhibitory concentration (IC50) is > 10 µM.

Consider `CNc1ccnc(Nc2ccc(OC)c(OCCCN(C)C)c2)n1` [Compound 387], for which the IC50 lay within 0.1 to 1 µM. Consider `CNc1ccnc(Nc2ccc3cnn(CCCN(C)C)c3c2)n1` [Compound 388, N^2-(1-(3-(dimethylamino)propyl)-1H-indazol-6-yl)-N^4-methylpyrimidine-2,4-diamine], for which the IC50 was > 10 µM. As for `CNc1ccnc(Nc2ccc3c(C)nn(CCCN(C)C)c3c2)n1` [Compound 389], the figure is > 10 µM; as for `CNc1ccnc(Nc2ccc(OC)c(OCCCN3CCCCC3)c2)n1` [Compound 390], 0.1 to 1 µM; as for `CNc1cc(C)nc(Nc2cccc(OCCCN3CCCC3)c2)n1` [Compound 391], 1 to 10 µM. For the molecule `COc1ccc(Nc2nccc(NCC(F)(F)F)n2)cc1OCCCN1CCCC1` [Compound 392], the IC50 lay in the range of 1 to 10 µM. As for `CNc1ccnc(Nc2ccc(OC)c(OCC3CCN(C)C3)c2)n1` (stereo not drawn) [Compound 393], the figure is 0.1 to 1 µM; as for `CCNC(=O)c1cccc(Nc2nccc(NC)n2)c1` [Compound 394], > 10 µM; as for `CCNC(=O)c1cc(Nc2nccc(NC)n2)ccc1OC` [Compound 395], > 10 µM. Then `CCNC(=O)c1cc(Nc2nccc(NC)n2)ccc1Cl` [Compound 396], with > 10 µM; and `CNc1ccnc(Nc2cccc(N3CCC(N(C)C)C3)c2)n1` (stereo not drawn) [Compound 397], with > 10 µM. `CNc1ccnc(Nc2ccc(Cl)c(OCCCN3CCCC3)c2)n1` [Compound 398]: the IC50 was 1 to 10 µM. Then `CNc1ccnc(Nc2cccc(N3CCC(N)C3)c2)n1` (stereo not drawn) [Compound 400], with > 10 µM; and `COc1ccc(Nc2ccc3cn(C)nc3n2)cc1OCCCN1CCCC1` [Compound 402], with > 10 µM.

As to `CNc1ccnc(Nc2ccc3cn(CCN(C)C)nc3c2)n1` [Compound 404, N^2-(2-(2-(dimethylamino)ethyl)-2H-indazol-6-yl)-N^4-methylpyrimidine-2,4-diamine], the IC50 is > 10 µM.

For `CNc1ccnc(Nc2ccc3cn(CCCN(C)C)nc3c2)n1` [Compound 405], the IC50 is > 10 µM. Consider `CNc1ccnc(Nc2ccc(OC)c(COC3CCN(C)C3)c2)n1` (stereo not drawn) [Compound 407, N^2-(4-methoxy-3-(((1-methylpyrrolidin-3-yl)oxy)methyl)phenyl)-N^4-methylpyrimidine-2,4-diamine], for which the IC50 is 0.1 to 1 µM. Then `CCN1CCC(COc2cc(Nc3nccc(NC)n3)ccc2OC)C1` (stereo not drawn) [Compound 408, N^2-(3-((1-ethylpyrrolidin-3-yl)methoxy)-4-methoxyphenyl)-N^4-methylpyrimidine-2,4-diamine], with 0.1 to 1 µM; and `CNc1ccnc(Nc2ccc(OC)c(OCC3CCN(C(C)C)C3)c2)n1` (stereo not drawn) [Compound 409, N^2-(3-((1-isopropylpyrrolidin-3-yl)methoxy)-4-methoxyphenyl)-N^4-methylpyrimidine-2,4-diamine], with 0.1 to 1 µM; and `CNc1ccnc(Nc2ccc(OC)c(OCC3CCN(CCOC)C3)c2)n1` (stereo not drawn) [Compound 410, N^2-(4-methoxy-3-((1-(2-methoxyethyl)pyrrolidin-3-yl)methoxy)phenyl)-N^4-methylpyrimidine-2,4-diamine], with > 10 µM. Consider `CNc1ccnc(Nc2ccc(OC)c(OCC3CCN(C4CC4)C3)c2)n1` (stereo not drawn) [Compound 411, N^2-(3-((1-cyclopropylpyrrolidin-3-yl)methoxy)-4-methoxyphenyl)-N^4-methylpyrimidine-2,4-diamine], for which the IC50 was in the range of 0.1 to 1 µM. As to `CNc1ccnc(Nc2ccc(OC)c(OCC3CCCN(C)C3)c2)n1` (stereo not drawn) [Compound 412, N^2-(4-methoxy-3-((1-methylpiperidin-3-yl)methoxy)phenyl)-N^4-methylpyrimidine-2,4-diamine], the IC50 lay within 1 to 10 µM. As to `CNc1cc(C)nc(Nc2ccc(OC)c(OCC3CCCN(C)C3)c2)n1` (stereo not drawn) [Compound 413, N^2-(4-methoxy-3-((1-methylpiperidin-3-yl)methoxy)phenyl)-N^4,6-dimethylpyrimidine-2,4-diamine], the IC50 is 0.1 to 1 µM.
